Laboratory results from patent US20240150848A1, “METHODS AND SYSTEMS FOR DIAGNOSIS, CLASSIFICATION, AND TREATMENT OF SMALL CELL LUNG CANCER AND OTHER HIGH-GRADE NEUROENDOCRINE CARCINOMAS” (BOARD OF REGENTS, THE UNIVERSITY OF TEXAS SYSTEM, priority 2021, published 2024).

System: SCLC-A and SCLC-N cell lines
Assay: Comparison of IC50 values between cell lines assigned to SCLC-A and SCLC-N by the methylation classifier (SCLC-DMC)
Format: cell-based
Excerpt: FIGS. 22A-22D show comparison of IC50 values for the BCL2i ABT-737 (FIG. 22A) and the AURKi CYC-116 (FIG. 22B) between cell lines assigned to SCLC-A and SCLC-N using SCLC-DMC. Clinical outcome depending on classification method used. Overall survival of ES-SCLC patients stratified by classification using the RNAseq signature or SCLC-DMC for SCLC-A (FIG. 22C) and SCLC-N(FIG. 22D). The box plot is highlighting the median as well as the 25th and 75th percentile in the box extended by 1.5× the IQR with bars. […] To validate that these same vulnerabilities are preserved using the methylation classifier (FIG. 30), the inventors compared IC50 values for over 400 drugs^24 between methylation-assigned SCLC-A and SCLC-N subtypes and identified numerous distinct vulnerabilities between the groups.

SMILES | sensitivity by comparison of IC50 values (methylation-assigned SCLC-A cell lines compared with SCLC-N cell lines (FIG. 22A)) | sensitivity by comparison of IC50 values (methylation-assigned SCLC-N cell lines compared with SCLC-A cell lines (FIG. 22B))
CN(C)CC[C@H](CSc1ccccc1)Nc1ccc(S(=O)(=O)NC(=O)c2ccc(N3CCN(Cc4ccccc4-c4ccc(Cl)cc4)CC3)cc2)cc1[N+](=O)[O-] [ABT-737] | more sensitive | 
Cc1nc(N)sc1-c1ccnc(Nc2ccc(N3CCOCC3)cc2)n1 [CYC-116] |  | more sensitive
